Assay results published in patent publication US7411093B2, “Aminocycloalkanes as DPP-IV inhibitors” (Hoffman-La Roche Inc., priority 2004, dated 2008).
pIC50: −log10 of the molar value.

biological target: T1, human DPP-IV (Homo sapiens, UniProt P27487); assay: DPP-IV activity assay (fluorogenic or colorimetric substrate); type: biochemical; details: natural human DPP-IV from human plasma pool or recombinant human DPP-IV; 37° C., pH 7.8
T1 construct: made in house; host or cells: Pichia pastoris (secreted, purified from culture medium)
Method: Activity of DPP-IV inhibitors are tested with natural human DPP-IV derived from a human plasma pool or with recombinant human DPP-IV. Human citrate plasma from different donors is pooled, filtered through a 0.2 micron membrane under sterile conditions and aliquots of 1 ml are shock frozen and stored at −120° C. until used. In the colorimetric DPP-IV assay 5 to 10 μl human plasma and in the fluorometric assay 1.0 μl of human plasma in a total assay volume of 100 μl is used as an enzyme source. The cDNA of the human DPP-IV sequence of amino acid 31- to 766, restricted for the N-terminus and the transmembrane domain, is cloned into Pichia pastoris. Human DPP-IV is expressed and purified from the culture medium using conventional column chromatography including size exclusion and anion and cation chromatography. The purity of the final enzyme preparation of Coomassie blue SDS-PAGE is >95%. In the colorimetric DPP-IV assay 20 ng rec.-h DPP-IV and in the fluorometric assay 2 ng rec-h DPP-IV in a total assay volume of 100 μl is used as an enzyme source.
In the fluorogenic assay Ala-Pro-7-amido-4-trifluoromethylcoumarin (Calbiochem No 125510) is used as a substrate. A 20 mM stock solution in 10% DMF/H2O is stored at −20° C. until use. In IC50 determinations a final substrate concentration of 50 μM is used. In assays to determine kinetic parameters as Km, Vmax, Ki, the substrate concentration is varied between 10 μM and 500 μM.
In the colorimetric assay H-Ala-Pro-pNA.HCl (Bachem L-11115) is used as a substrate. A 10 mM stock solution in 10% MeOH/H2O is stored at −20° C. until use. In IC50 determinations a final substrate concentration of 200 μM is used. In assays to determine kinetic parameters as Km, Vmax, Ki, the substrate concentration is varied between 100 μM and 2000 μM.
Fluorescence is detected in a Perkin Elmer Luminescence Spectrometer LS 50B at an excitation wavelength of 400 nm and an emission wavelength of 505 nm continuously every 15 seconds for 10 to 30 minutes. Initial rate constants are calculated by best fit linear regression.
The absorption of pNA liberated from the colorimetric substrate is detected in a Packard SpectraCount at 405 nm continuously every 2 minutes for 30 to 120 minutes. Initial rate constants are calculated by best fit linear regression.
DPP-IV activity assays are performed in 96 well plates at 37° C. in a total assay volume of 100 μl. The assay buffer consists of 50 mM Tris/HCl, pH 7.8 containing 0.1 mg/ml BSA and 100 mM NaCl. […]
IC50 determinations of test compounds are calculated by non-linear best fit regression of the DPP-IV inhibition of at least 5 different compound concentrations. Kinetic parameters of the enzyme reaction are calculated at least 5 different substrate concentrations and at least 5 different test compound concentrations.

T1 sequence (P27487 31-766): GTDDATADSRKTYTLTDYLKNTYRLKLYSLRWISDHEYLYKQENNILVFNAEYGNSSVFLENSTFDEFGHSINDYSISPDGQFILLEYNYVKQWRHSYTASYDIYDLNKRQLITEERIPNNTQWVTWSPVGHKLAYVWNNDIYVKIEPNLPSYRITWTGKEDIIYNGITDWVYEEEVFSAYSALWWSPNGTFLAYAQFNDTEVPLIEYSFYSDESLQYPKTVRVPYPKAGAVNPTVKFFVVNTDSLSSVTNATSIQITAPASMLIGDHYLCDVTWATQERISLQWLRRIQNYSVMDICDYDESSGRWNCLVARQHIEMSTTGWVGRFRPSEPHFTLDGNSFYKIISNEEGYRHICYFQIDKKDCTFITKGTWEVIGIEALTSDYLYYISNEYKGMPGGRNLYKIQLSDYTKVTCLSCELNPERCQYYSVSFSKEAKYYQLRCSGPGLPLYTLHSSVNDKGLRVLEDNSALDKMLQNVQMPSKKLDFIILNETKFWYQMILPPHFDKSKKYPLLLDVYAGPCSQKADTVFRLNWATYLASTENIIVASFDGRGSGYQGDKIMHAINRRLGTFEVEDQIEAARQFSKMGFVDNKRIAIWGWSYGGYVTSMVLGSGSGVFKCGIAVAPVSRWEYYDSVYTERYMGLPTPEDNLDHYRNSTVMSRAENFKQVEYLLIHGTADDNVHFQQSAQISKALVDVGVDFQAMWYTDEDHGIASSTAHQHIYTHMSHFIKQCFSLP

Row | Structure (SMILES) | pIC50
1 | N[C@@H]1CCCC[C@@H]1c1cc(Cl)ccc1Cl (relative stereo) [Example 7, (cis)-2-(2,5-Dichloro-phenyl)-cyclohexylamine] | 6.89
2 | Cc1ccc(C)c([C@@H]2CCCC[C@H]2N)c1 (relative stereo) [Example 18, (trans)-2-(2,5-Dimethyl-phenyl)-cyclohexylamine] | 6.80
3 | N[C@@H]1CCCCC[C@H]1c1cc(Cl)ccc1Cl (relative stereo) [Example 24, (trans)-2-(2,5-Dichloro-phenyl)-cycloheptylamine] | 6.14
4 | CC1=CC(=O)N([C@@H]2CCCC[C@H]2N)C1 (relative stereo) [Example 30, trans-1-(2-Amino-cyclohexyl)-4-methyl-1,5-dihydro-pyrrol-2-one] | 6.14
